Data from patent US20260285875A1, “INHIBITORS OF PARG” (858 Therapeutics, Inc., priority 2023, published 2026).

These compounds were tested against T1, cellular PARG (Homo sapiens, UniProt Q86W56) (assay: Nuclear PAR accumulation assay (immunofluorescence high-content imaging, MMS-treated HeLa cells)). Conditions: 1 hour compound then MMS 50 μg/mL for an additional hour.
T1 construct: endogenous in cells; host or cells: HeLa
T1 sequence (Q86W56 whole entry): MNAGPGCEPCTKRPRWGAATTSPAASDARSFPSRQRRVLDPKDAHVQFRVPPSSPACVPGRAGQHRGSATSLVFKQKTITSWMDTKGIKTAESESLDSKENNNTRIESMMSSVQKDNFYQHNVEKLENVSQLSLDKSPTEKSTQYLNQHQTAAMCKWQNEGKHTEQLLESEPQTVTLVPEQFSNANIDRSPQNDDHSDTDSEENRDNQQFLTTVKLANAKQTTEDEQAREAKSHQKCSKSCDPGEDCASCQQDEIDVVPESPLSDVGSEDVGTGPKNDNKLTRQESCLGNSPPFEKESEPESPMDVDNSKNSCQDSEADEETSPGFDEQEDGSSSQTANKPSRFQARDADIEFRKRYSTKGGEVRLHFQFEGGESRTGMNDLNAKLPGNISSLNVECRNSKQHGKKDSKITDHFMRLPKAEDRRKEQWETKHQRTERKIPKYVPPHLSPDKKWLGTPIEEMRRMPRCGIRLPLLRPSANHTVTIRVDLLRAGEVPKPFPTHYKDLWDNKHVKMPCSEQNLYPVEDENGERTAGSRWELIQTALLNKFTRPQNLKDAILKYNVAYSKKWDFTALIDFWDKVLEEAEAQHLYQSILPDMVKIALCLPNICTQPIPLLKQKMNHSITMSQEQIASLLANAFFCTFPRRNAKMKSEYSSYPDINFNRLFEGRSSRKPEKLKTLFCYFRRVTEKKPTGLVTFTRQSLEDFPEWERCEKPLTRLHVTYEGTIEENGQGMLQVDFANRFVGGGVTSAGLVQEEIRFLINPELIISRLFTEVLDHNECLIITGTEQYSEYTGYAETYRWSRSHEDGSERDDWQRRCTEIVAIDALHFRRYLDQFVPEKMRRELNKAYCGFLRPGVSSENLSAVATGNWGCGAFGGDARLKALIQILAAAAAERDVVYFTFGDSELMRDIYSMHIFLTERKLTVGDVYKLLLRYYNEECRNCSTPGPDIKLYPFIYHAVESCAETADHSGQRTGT
Format: cell-based
How it was run: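 HeLa cells pretreated with compound for 1 h at 37° C, then given 50 μg/mL MMS for another hour. After methanol fixation, PAR was immunostained with DAPI nuclear counterstain; per-nucleus intensity and percent PAR-positive cells were imaged at 20× (≥1,000 cells/well). IC50 from four-parameter logistic fit.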
In the case of `CN1C(=O)c2cc(S(=O)(=O)NC3(C)CC3)ccc2N2C1=NCC2C#Cc1cnn(C)c(=O)c1` (centres unmarked) [Example 175, 4-methyl-1-((1-methyl-6-oxo-1,6-dihydropyridazin-4-yl)ethynyl)-N-(1-methylcyclopropyl)-5-oxo-1,2,4,5-tetrahydroimidazo[1,2-a]quinazoline-7-sulfonamide], the IC50 is reported as < 0.1 µM. Work on `CN1C(=O)c2cc(S(=O)(=O)NC3(C)CC3)ccc2N2C1=NCC2C#Cc1ccc2nccn2n1` (centres unmarked) [Example 176, 1-(imidazo[1,2-b]pyridazin-6-ylethynyl)-4-methyl-N-(1-methylcyclopropyl)-5-oxo-1,2,4,5-tetrahydroimidazo[1,2-a]quinazoline-7-sulfonamide] yielded an IC50 of 0.1 to 1 µM. Work on `C[C@@H]1CN=C2N(Cc3cnn4c3CNCC4)C(=O)c3cc(S(=O)(=O)NC4(C)CC4)ccc3N21` [Example 177, (R)-1-methyl-N-(1-methylcyclopropyl)-5-oxo-4-((4,5,6,7-tetrahydropyrazolo[1,5-a]pyrazin-3-yl)methyl)-1,2,4,5-tetrahydroimidazo[1,2-a]quinazoline-7-sulfonamide] yielded an IC50 of 0.1 to 1 µM. Work on `CN1C(=O)c2cc(S(=O)(=O)NC3(C)CC3)ccc2N2C1=NCC2C#Cc1cnn2c1OCC1(COC1)C2` (centres unmarked) [Example 178, 1-((5′H,7′H-spiro[oxetane-3,6′-pyrazolo[5,1-b][1,3]oxazin]-3′-yl)ethynyl)-4-methyl-N-(1-methylcyclopropyl)-5-oxo-1,2,4,5-tetrahydroimidazo[1,2-a]quinazoline-7-sulfonamide] yielded an IC50 of 0.1 to 1 µM. For `CN1C(=O)c2cc(S(=O)(=O)NC3(C)CC3)ccc2N2C1=NCC2C#Cc1cnsc1` (centres unmarked) [Example 179, 1-(isothiazol-4-ylethynyl)-4-methyl-N-(1-methylcyclopropyl)-5-oxo-1,2,4,5-tetrahydroimidazo[1,2-a]quinazoline-7-sulfonamide], the IC50 was < 0.1 µM. For `CN1C(=O)c2cc(S(=O)(=O)NC3(C)CC3)ccc2N2C1=NC[C@H]2C#Cc1cnc2ccc(C#N)nn12` [Example 180, (R)-1-((6-cyanoimidazo[1,2-b]pyridazin-3-yl)ethynyl)-4-methyl-N-(1-methylcyclopropyl)-5-oxo-1,2,4,5-tetrahydroimidazo[1,2-a]quinazoline-7-sulfonamide], the IC50 was < 0.1 µM. `COc1ccc2ncc(C#C[C@@H]3CN=C4N(C)C(=O)c5cc(S(=O)(=O)NC6(C)CC6)ccc5N43)n2n1` [Example 181, (R)-1-((6-methoxyimidazo[1,2-b]pyridazin-3-yl)ethynyl)-4-methyl-N-(1-methylcyclopropyl)-5-oxo-1,2,4,5-tetrahydroimidazo[1,2-a]quinazoline-7-sulfonamide] was tested, and the IC50 was < 0.1 µM. For `Cc1cnn2c(C#C[C@@H]3CN=C4N(C)C(=O)c5cc(S(=O)(=O)NC6(C)CC6)ccc5N43)cnc2c1` [Example 182, (R)-4-methyl-N-(1-methylcyclopropyl)-1-((7-methylimidazo[1,2-b]pyridazin-3-yl)ethynyl)-5-oxo-1,2,4,5-tetrahydroimidazo[1,2-a]quinazoline-7-sulfonamide], the IC50 was < 0.1 µM. In the case of `Cc1ccc2ncc(C#C[C@@H]3CN=C4N(C)C(=O)c5cc(S(=O)(=O)NC6(C)CC6)ccc5N43)n2n1` [Example 183, (R)-4-methyl-N-(1-methylcyclopropyl)-1-((6-methylimidazo[1,2-b]pyridazin-3-yl)ethynyl)-5-oxo-1,2,4,5-tetrahydroimidazo[1,2-a]quinazoline-7-sulfonamide], the IC50 is reported as < 0.1 µM. `[2H]C([2H])([2H])N1C(=O)c2cc(S(=O)(=O)NC3(C)CC3)ccc2N2C1=NCC2C#Cc1cnc2cccnn12` (centres unmarked) [Example 184, 1-(imidazo[1,2-b]pyridazin-3-ylethynyl)-4-(methyl-d3)-N-(1-methylcyclopropyl)-5-oxo-1,2,4,5-tetrahydroimidazo[1,2-a]quinazoline-7-sulfonamide] was tested, and the IC50 was < 0.1 µM. `CN1C(=O)c2cc(S(=O)(=O)NC3(C)CC3)ccc2N2C1=NC[C@H]2C#Cc1ccnn1C` [Example 185, (R)-4-methyl-1-((1-methyl-1H-pyrazol-5-yl)ethynyl)-N-(1-methylcyclopropyl)-5-oxo-1,2,4,5-tetrahydroimidazo[1,2-a]quinazoline-7-sulfonamide] was tested, and the IC50 was < 0.1 µM. In the case of `CCN1C(=O)c2cc(S(=O)(=O)NC3(C)CC3)ccc2N2C1=NC[C@H]2C#CC1(N(C)C)CC1` [Example 186, (R)-1-((1-(dimethylamino)cyclopropyl)ethynyl)-4-ethyl-N-(1-methylcyclopropyl)-5-oxo-1,2,4,5-tetrahydroimidazo[1,2-a]quinazoline-7-sulfonamide], the IC50 is reported as < 0.1 µM. With `CCN1C(=O)c2cc(S(=O)(=O)NC3(C)CC3)ccc2N2C1=NC[C@H]2C#Cc1cnn(C)n1` [Example 187, (R)-4-ethyl-I-((2-methyl-2H-1,2,3-triazol-4-yl)ethynyl)-N-(1-methylcyclopropyl)-5-oxo-1,2,4,5-tetrahydroimidazo[1,2-a]quinazoline-7-sulfonamide] the IC50 was < 0.1 µM. In the case of `CCN1C(=O)c2cc(S(=O)(=O)NC3(C)CC3)ccc2N2C1=NC[C@H]2C#CC1CC1` [Example 188, (R)-1-(cyclopropylethynyl)-4-ethyl-N-(1-methylcyclopropyl)-5-oxo-1,2,4,5-tetrahydroimidazo[1,2-a]quinazoline-7-sulfonamide], the IC50 is reported as < 0.1 µM. With `CCN1C(=O)c2cc(S(=O)(=O)NC3(C)CC3)ccc2N2C1=NC[C@H]2C#Cc1cnc2cccnn12` [Example 189, (R)-4-ethyl-1-(imidazo[1,2-b]pyridazin-3-ylethynyl)-N-(1-methylcyclopropyl)-5-oxo-1,2,4,5-tetrahydroimidazo[1,2-a]quinazoline-7-sulfonamide] the IC50 was < 0.1 µM. With `CCN1C(=O)c2cc(S(=O)(=O)NC3(C)CC3)ccc2N2C1=NC[C@H]2C#Cc1cnn2cccnc12` [Example 190, (R)-4-ethyl-N-(1-methylcyclopropyl)-5-oxo-1-(pyrazolo[1,5-a]pyrimidin-3-ylethynyl)-1,2,4,5-tetrahydroimidazo[1,2-a]quinazoline-7-sulfonamide] the IC50 was < 0.1 µM. In the case of `CCN1C(=O)c2cc(S(=O)(=O)NC3(C)CC3)ccc2N2C1=NC[C@H]2C#Cc1cnc2cc(CN(C)C)cnn12` [Example 191, (R)-1-((7-((dimethylamino)methyl)imidazo[1,2-b]pyridazin-3-yl)ethynyl)-4-ethyl-N-(1-methylcyclopropyl)-5-oxo-1,2,4,5-tetrahydroimidazo[1,2-a]quinazoline-7-sulfonamide], the IC50 is reported as < 0.1 µM. `Cc1cc(C#C[C@@H]2CN=C3N(Cc4cnn(C)c4)C(=O)c4cc(S(=O)(=O)NC5(C)CC5)ccc4N32)n(C)n1` [Example 192, (R)-1-((1,3-dimethyl-1H-pyrazol-5-yl)ethynyl)-4-((1-methyl-1H-pyrazol-4-yl)methyl)-N-(1-methylcyclopropyl)-5-oxo-1,2,4,5-tetrahydroimidazo[1,2-a]quinazoline-7-sulfonamide] was tested, and the IC50 was < 0.1 µM. With `Cn1cc(CN2C(=O)c3cc(S(=O)(=O)NC4(C)CC4)ccc3N3C2=NC[C@H]3C#Cc2ccnn2C2CC2)cn1` [Example 193, (R)-1-((1-cyclopropyl-1H-pyrazol-5-yl)ethynyl)-4-((1-methyl-1H-pyrazol-4-yl)methyl)-N-(1-methylcyclopropyl)-5-oxo-1,2,4,5-tetrahydroimidazo[1,2-a]quinazoline-7-sulfonamide] the IC50 was < 0.1 µM. `Cc1cc(C#C[C@@H]2CN=C3N(Cc4cnn(C)c4)C(=O)c4cc(S(=O)(=O)NC5(C)CC5)ccc4N32)sn1` [Example 194, (R)-4-((1-methyl-1H-pyrazol-4-yl)methyl)-N-(1-methylcyclopropyl)-1-((3-methylisothiazol-5-yl)ethynyl)-5-oxo-1,2,4,5-tetrahydroimidazo[1,2-a]quinazoline-7-sulfonamide] was tested, and the IC50 was < 0.1 µM. In the case of `CCN1C(=O)c2cc(S(=O)(=O)NC3(C)CC3)ccc2N2C1=NC[C@H]2C#Cc1cc(CN(C)C)nn1C` [Example 195, (R)-1-((3-((dimethylamino)methyl)-1-methyl-1H-pyrazol-5-yl)ethynyl)-4-ethyl-N-(1-methylcyclopropyl)-5-oxo-1,2,4,5-tetrahydroimidazo[1,2-a]quinazoline-7-sulfonamide], the IC50 is reported as < 0.1 µM. With `Cn1cc(CN2C(=O)c3cc(S(=O)(=O)NC4(C)CC4)ccc3N3C2=NC[C@H]3C#Cc2ncnn2C)cn1` [Example 196, (R)-1-((1-methyl-1H-1,2,4-triazol-5-yl)ethynyl)-4-((1-methyl-1H-pyrazol-4-yl)methyl)-N-(1-methylcyclopropyl)-5-oxo-1,2,4,5-tetrahydroimidazo[1,2-a]quinazoline-7-sulfonamide] the IC50 was < 0.1 µM. For `CCN1C(=O)c2cc(S(=O)(=O)NC3(C)CC3)ccc2N2C1=NC[C@H]2C#Cc1ccnn1C` [Example 198, (R)-4-ethyl-1-((1-methyl-1H-pyrazol-5-yl)ethynyl)-N-(1-methylcyclopropyl)-5-oxo-1,2,4,5-tetrahydroimidazo[1,2-a]quinazoline-7-sulfonamide], the IC50 was < 0.1 µM. `CN1C(=O)c2cc(S(=O)(=O)NC3(C)CC3)ccc2N2C1=NC[C@H]2C#Cc1cnn(C)c(=O)c1` [Example 199, (R)-4-methyl-1-((1-methyl-6-oxo-1,6-dihydropyridazin-4-yl)ethynyl)-N-(1-methylcyclopropyl)-5-oxo-1,2,4,5-tetrahydroimidazo[1,2-a]quinazoline-7-sulfonamide] was tested, and the IC50 was < 0.1 µM. For `CN1C(=O)c2cc(S(=O)(=O)NC3(C)CC3)ccc2N2C1=NCC2C#Cc1ccn(C)c(=O)c1` (centres unmarked) [Example 200, 4-methyl-1-((1-methyl-2-oxo-1,2-dihydropyridin-4-yl)ethynyl)-N-(1-methylcyclopropyl)-5-oxo-1,2,4,5-tetrahydroimidazo[1,2-a]quinazoline-7-sulfonamide], the IC50 was 0.1 to 1 µM. In the case of `CN1C(=O)c2cc(S(=O)(=O)NC3(C)CC3)ccc2N2C1=NC[C@H]2C#Cc1cnc2ccc(C(F)(F)F)nn12` [Example 201, (R)-4-methyl-N-(1-methylcyclopropyl)-5-oxo-1-((6-(trifluoromethyl)imidazo[1,2-b]pyridazin-3-yl)ethynyl)-1,2,4,5-tetrahydroimidazo[1,2-a]quinazoline-7-sulfonamide], the IC50 is reported as < 0.1 µM.
